Experimental data taken from US20160102317A1, “PLANTS HAVING INCREASED TOLERANCE TO HERBICIDES” (BASF SE, priority 2013, published 2016).

Columns and labels:
Assay type in all cases: biochemical
[1] = tested on: Rhodococcus HPPD (Seq ID 46); assay: HPPD activity assay, tolerance index; conditions: Table 12; Rhodococcus (Seq ID 46); normalized to reference SEQ ID NO:53
Description: (§1) HPPD produces homogentisic acid and CO2 from 4-hydroxyphenylpyruvate (4-HPP) and 02. The activity assay for HPPD is based on the analysis of homogentisic acid by reversed phase HPLC. The assay mixture can contain 150 mM potassium phosphate buffer pH 7.0, 50 mM L-ascorbic acid, 100 μM Catalase (Sigma-Aldrich), 1 μM FeSO4 and 0.2 units of purified HPPD enzyme in a total volume of 505 μl. 1 unit is defined as the amount of enzyme that is required to produce 1 nmol of HGA per minute at 20° C.
(§2) After a preincubation of 30 min the reaction is started by adding 4-HPP to a final concentration of 0.05 mM. The reaction is allowed to proceed for 45 min at room temperature. The reaction is stopped by the addition of 50 μl of 4.5 M phosphoric acid. The sample is filtered using a […] pore size PVDF filtration device.
(§3) 5 μl of the cleared sample is analyzed on an UPLC HSS T3 column (particle size 1.8 μm, dimensions 2.1×50 mm; Waters) by isocratic elution using 90% 20 mM NaH2PO4 pH 2.2, 10% methanol (v/v).
(§4) HGA is detected electrochemically at 750 mV (mode: DC; polarity: positive) and quantified by integrating peak areas (Empower software; Waters).
(§5) Inhibitors are dissolved in DMSO (dimethylsulfoxide) to a concentration of 0.5 mM. From this stock solution serial five-fold dilutions are prepared in DMSO, which are used in the assay. The respective inhibitor solution accounts for 1% of the assay volume. Thus, final inhibitor concentrations range from 5 μM to 320 μM, respectively. […] IC50 values are calculated using non-linear regression.
(§6) Using methods which are described in the above examples or well known in the art, purified, recombinant wild-type HPPD enzymes are characterized with respect to their kinetic properties and sensitivity towards HPPD inhibiting herbicides. Apparent michaelis constants (Km) and maximal reaction velocities (Vmax) are calculated by non-linear regression with the software GraphPad Prism 5 (GraphPad Software, La Jolla, USA) using a substrate inhibition model. […] Weighted means (by standard error) of Km and IC50 values are calculated from at least three independent experiments. […]

[2] = tested on: Synechococcus HPPD; assay: HPPD activity assay, tolerance index; conditions: Table 12, normalized to reference SEQ ID NO:53
Description: as §1, §2, §3, §4, §5, §6

[3] = tested on: Rhodococcus HPPD (Seq ID 44); assay: HPPD activity assay, tolerance index; conditions: Table 12; Rhodococcus (Seq ID 44); normalized to reference SEQ ID NO:53
Description: as §1, §2, §3, §4, §5, §6

[4] = biological target: T1, Arabidopsis HPPD (SEQ ID: 53) M335H, P336A, E363Q (Arabidopsis thaliana, UniProt P93836, E363Q/M335H/P336A); assay: HPPD activity assay, in vitro characterization of HPPD mutants; conditions: Table 15, Arabidopsis HPPD variant M335H, wild-type = 1
T1 construct: PCR-based site directed mutagenesis of pEXP5-NT/TOPO®-AtHPPD is done; His6 (N); made in house; host or cells: E. coli BL21 (DE3)
T1 sequence (P93836 whole entry M335H/P336A/E363Q): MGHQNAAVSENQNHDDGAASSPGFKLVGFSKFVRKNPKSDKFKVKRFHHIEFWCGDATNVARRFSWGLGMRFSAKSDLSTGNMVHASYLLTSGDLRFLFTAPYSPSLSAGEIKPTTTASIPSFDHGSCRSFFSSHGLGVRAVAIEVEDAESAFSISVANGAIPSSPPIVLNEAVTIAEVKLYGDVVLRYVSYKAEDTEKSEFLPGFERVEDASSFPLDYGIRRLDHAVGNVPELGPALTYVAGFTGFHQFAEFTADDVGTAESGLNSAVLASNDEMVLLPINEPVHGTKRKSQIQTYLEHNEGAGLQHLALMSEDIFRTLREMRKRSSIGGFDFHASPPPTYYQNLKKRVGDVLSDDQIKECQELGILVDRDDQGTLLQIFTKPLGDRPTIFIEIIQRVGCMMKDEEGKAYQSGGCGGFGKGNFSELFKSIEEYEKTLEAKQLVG
Description: as §1, §2, §3, §4
(§7) Inhibitors are dissolved in DMSO (dimethylsulfoxide) to a concentration of 0.5 mM. From this stock solution serial five-fold dilutions are prepared in DMSO, which are used in the assay. The respective inhibitor solution accounts for 1% of the assay volume. […] Activities are normalized by setting the uninhibited enzyme activity to 100%. IC50 values are calculated using non-linear regression.
(§8) Purified, mutant HPPD enzymes are obtained by the methods described above. Dose response and kinetic measurements are carried out using the described HPPD activity assay. Apparent michaelis constants (Km) and maximal reaction velocities (Vmax) are calculated by non-linear regression with the software GraphPad Prism 5 (Graph Pad Software, La Jolla, USA) using a substrate inhibition model. […] Weighted means (by standard error) of Km and IC50 values are calculated from at least three independent experiments.
(§9) Field performance of the optimized HPPD enzyme, which is used as a herbicide tolerance trait may depend not only on its lack of sensitivity towards HPPD inhibiting herbicides but also on its activity. To assess the potential performance of a herbicide tolerance trait a tolerance index (TI) is calculated using the following formula: […]
(§10) Easy comparison and ranking of each trait is enabled by normalizing tolerance indexes on Arabidopsis wild-type HPPD.

[5] = biological target: T2, Hordeum HPPD (SEQ ID: 2) L353M, P321R, V212I (Hordeum vulgare, UniProt O48604, L353M/P321R/V212I); assay: as above; conditions: Table 16, Hordeum wild-type = 1
T2 construct: His (N); made in house; host or cells: E. coli BL21 (DE3)
T2 sequence (O48604 whole entry R146V/R147D/R148G/A164G/V212I/P321R/L353M): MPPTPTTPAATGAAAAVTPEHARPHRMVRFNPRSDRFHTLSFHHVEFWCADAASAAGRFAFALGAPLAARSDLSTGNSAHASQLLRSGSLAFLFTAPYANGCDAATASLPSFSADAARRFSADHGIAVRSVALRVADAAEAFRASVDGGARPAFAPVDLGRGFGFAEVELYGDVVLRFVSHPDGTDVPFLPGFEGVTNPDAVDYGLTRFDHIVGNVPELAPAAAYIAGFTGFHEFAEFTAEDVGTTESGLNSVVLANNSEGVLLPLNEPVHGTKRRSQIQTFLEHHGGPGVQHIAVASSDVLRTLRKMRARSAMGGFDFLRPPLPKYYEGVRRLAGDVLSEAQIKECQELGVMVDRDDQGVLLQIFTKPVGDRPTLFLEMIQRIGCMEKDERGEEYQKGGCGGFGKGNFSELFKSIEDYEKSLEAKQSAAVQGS
Description: as §1, §2, §3, §4, §7, §8, §9, §10

[6] = biological target: T3, Arabidopsis HPPD (SEQ ID NO:53), wild-type (Arabidopsis thaliana, UniProt P93836); assay: HPPD activity assay (HGA by HPLC), wild-type enzyme characterization
T3 construct: His6 (N); made in house; host or cells: E. coli BL21 (DE3)
T3 sequence (P93836 1-445): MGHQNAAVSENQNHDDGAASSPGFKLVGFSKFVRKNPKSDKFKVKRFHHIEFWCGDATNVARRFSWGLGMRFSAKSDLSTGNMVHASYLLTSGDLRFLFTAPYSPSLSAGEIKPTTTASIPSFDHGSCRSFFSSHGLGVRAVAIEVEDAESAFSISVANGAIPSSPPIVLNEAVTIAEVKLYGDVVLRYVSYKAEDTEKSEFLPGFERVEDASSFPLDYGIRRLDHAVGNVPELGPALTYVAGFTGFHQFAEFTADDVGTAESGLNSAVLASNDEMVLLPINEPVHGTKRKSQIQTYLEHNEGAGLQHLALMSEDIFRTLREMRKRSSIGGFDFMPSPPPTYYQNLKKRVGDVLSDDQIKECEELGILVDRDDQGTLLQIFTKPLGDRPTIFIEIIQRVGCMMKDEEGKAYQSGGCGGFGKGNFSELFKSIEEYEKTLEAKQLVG
Description: as §1, §2, §3, §4, §7
Using methods which are described in the above examples or well known in the art, purified, recombinant wild-type HPPD enzymes are characterized with respect to their kinetic properties and sensitivity towards HPPD inhibiting herbicides. Apparent michaelis constants (Km) and maximal reaction velocities (Vmax) are calculated by non-linear regression with the software GraphPad Prism 5 (GraphPad Software, La Jolla, USA) using a substrate inhibition model. […] Weighted means (by standard error) of Km and IC50 values are calculated from at least three independent experiments.
as §9, with “of the HPPD enzyme,” for “of the optimized HPPD enzyme,”, “herbicide tolerance trait, may depend” for “herbicide tolerance trait may depend”
as §10

COc1no[nH]/c1=N/C(=O)c1ccc2c(c1Cl)S(=O)(=O)CCC2(C)C [Inhibitor 1, (NE)-8-chloro-N-(4-methoxy-1,2,5-oxadiazol-3-ylidene)-4,4-dimethyl-1,1-dioxo-2,3-dihydrothiochromene-7-carboxamide]
TI Inhibitor 1 (normalized tolerance index) [1]: 1.2
TI Inhibitor 1 (normalized tolerance index) [2]: 11.9
TI Inhibitor 1 (normalized tolerance index) [3]: 25.2
TI Inhibitor 1 (normalized tolerance index) [4]: 0.3
TI Inhibitor 1 (normalized tolerance index) [5]: 2.9
Ki [6]: 19 nM
TI Inhibitor 1 (normalized tolerance index) ([6]; Table 12, Arabidopsis HPPD, normalized to reference SEQ ID NO:53): 1
TI Inhibitor 1 (normalized tolerance index) ([6]; Table 15, Arabidopsis HPPD variant Wild-type): 1
